Test results reported in US20060099643A1, “Method for determining the regulation of xenobiotic removal” (priority 2002, published 2006).

Legend:
ER-β [1] = molecular target: ER-β (Homo sapiens, UniProt Q92731); test: Microplate thermal shift assay (Thermofluor) of ER-β with ligands and co-regulators; format: binding; settings: for Observed ΔTm Stabilization, SRC3-NR2: co-activator peptide SRC3-NR2 100 μM; for Observed ΔTm Stabilization, NR2: change in Tm stabilization from the receptor-ligand ΔTm; for Observed ΔTm Stabilization, NR2 / Observed ΔTm Stabilization, SRC-3: head shifted, see doubts; for Observed ΔTm Stabilization, SRC-3: average of four experiments
ER-β (Homo sapiens, UniProt Q92731), sequence (Q92731 whole entry, species assumed): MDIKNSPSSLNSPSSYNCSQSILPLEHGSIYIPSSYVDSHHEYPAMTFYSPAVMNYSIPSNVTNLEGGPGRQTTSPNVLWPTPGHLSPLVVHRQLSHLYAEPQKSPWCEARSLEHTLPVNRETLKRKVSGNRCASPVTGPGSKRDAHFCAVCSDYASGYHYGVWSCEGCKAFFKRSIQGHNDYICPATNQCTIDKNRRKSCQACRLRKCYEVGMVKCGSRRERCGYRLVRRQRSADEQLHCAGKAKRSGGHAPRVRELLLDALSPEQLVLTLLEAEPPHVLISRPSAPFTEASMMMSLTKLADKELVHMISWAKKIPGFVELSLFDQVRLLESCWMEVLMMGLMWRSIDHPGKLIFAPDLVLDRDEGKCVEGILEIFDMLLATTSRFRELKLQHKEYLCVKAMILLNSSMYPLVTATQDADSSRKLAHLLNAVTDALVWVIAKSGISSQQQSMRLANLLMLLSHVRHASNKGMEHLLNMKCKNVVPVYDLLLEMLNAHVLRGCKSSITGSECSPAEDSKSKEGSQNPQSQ
Protocol: (§1) A 2 μM ligand solution at 2 times the final concentration was dispensed with a micropipette into a 384 well black wall Greiner plate. Then, 2 μL of the protein dye solution was dispensed on top of the ligand solution in the 384 well plate. The plates were spun to ensure mixing of the protein-dye and ligand solutions followed by layering of 1 μL of silicone oil to prevent evaporation during heating of the samples.

SXR [2] = molecular target: T1, SXR (Homo sapiens, UniProt O75469); test: Microplate thermal shift assay (Thermofluor) of SXR with ligands, co-activator peptide SRC1-NR2 and co-repressor peptide NCoR-1; settings: for ΔΔTm SRC1-NR2 / ΔTm ligand / ΔΔTm NcoR1-NR2: SXR 6 μM, ligand 50 μM; for ΔΔTm SRC1-NR2: co-activator peptide SRC1-NR2 100 μM; for ΔΔTm SRC1-NR2 / ΔΔTm NcoR1-NR2: change from the receptor-ligand ΔTm; for Probability Agonist (statistical probability of agonist state): computed from affinities derived from ΔΔTm with co-regulator peptides (FIG. 3); for ΔTm at 100 µM: read-out: ΔΔTm NcoR1-NR2; for ΔTm ligand: average of four experiments; for ΔΔTm NcoR1-NR2: co-repressor peptide NCoR-1 100 μM
T1 sequence (O75469 1-434): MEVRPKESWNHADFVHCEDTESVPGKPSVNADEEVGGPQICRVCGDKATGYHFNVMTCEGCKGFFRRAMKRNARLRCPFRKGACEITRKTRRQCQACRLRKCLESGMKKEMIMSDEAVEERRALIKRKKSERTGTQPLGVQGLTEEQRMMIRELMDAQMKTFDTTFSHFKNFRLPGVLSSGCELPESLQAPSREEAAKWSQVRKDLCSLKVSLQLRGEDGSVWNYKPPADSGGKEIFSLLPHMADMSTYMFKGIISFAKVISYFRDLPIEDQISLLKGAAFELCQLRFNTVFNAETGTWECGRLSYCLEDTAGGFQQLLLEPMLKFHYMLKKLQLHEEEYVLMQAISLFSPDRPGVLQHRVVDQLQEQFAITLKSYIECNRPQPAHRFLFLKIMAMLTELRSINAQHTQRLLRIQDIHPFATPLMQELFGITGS
Protocol: A 2 μL ligand solution at 2 times the final concentration was dispensed with a micropipette into a 384 well black wall Greiner plate. Then, 2 μL of the protein dye solution was dispensed on top of the ligand solution in the 384 well plate. The plates were spun to ensure mixing of the protein-dye and ligand solutions followed by layering of 1 μL of silicone oil to prevent evaporation during heating of the samples. […] The values for the co-regulators represent a change in Tm stabilization from the receptor-ligand ΔTm values.

SXR [3] = molecular target: T1, SXR; settings: from Ekins & Erickson, Drug Metabolism and Disposition, 30, 96-99 and references therein; cited from earlier work
ER-α [4] = molecular target: T2, ER-α (Homo sapiens, UniProt P03372); test: Microplate thermal shift assay (Thermofluor) of ER-α with ligands and co-regulators; format: binding
T2 sequence (P03372 1-595): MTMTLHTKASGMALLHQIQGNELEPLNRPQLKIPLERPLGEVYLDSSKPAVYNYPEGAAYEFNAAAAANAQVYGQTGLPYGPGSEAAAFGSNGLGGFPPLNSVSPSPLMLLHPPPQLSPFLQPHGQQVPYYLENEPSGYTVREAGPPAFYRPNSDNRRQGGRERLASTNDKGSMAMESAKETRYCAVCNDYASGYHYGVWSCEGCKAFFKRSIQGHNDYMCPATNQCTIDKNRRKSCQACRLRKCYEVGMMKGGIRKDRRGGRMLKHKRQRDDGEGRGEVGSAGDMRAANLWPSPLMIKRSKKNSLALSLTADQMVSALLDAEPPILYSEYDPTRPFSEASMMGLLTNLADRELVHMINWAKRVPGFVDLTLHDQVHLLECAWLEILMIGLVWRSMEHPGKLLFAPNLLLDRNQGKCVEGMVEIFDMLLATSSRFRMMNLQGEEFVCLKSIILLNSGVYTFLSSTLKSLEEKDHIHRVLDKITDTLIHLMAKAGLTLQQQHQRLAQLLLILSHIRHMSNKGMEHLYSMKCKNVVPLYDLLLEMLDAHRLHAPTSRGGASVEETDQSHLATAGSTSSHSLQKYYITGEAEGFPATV
Protocol: as §1

ER-β [5] = molecular target: T3, ER-β (UniProt Q92731 256-505, limits assumed); test: Thermofluor thermal shift; ER-β 8 µM with ICI-182780 20 µM; peptide 100 µM
T3 construct: also called estrogen receptor beta
T3 sequence (Q92731 256-505 limits assumed): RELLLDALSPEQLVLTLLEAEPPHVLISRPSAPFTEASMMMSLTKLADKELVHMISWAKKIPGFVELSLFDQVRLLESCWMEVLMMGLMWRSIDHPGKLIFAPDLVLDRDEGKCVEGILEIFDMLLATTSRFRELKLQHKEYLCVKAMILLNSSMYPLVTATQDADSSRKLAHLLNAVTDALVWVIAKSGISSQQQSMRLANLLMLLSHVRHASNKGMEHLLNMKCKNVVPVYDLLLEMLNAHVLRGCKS
Protocol: as §1

ER-α [6] = molecular target: T4, ER-α (UniProt P03372 297-554, limits assumed); test: Thermofluor thermal shift; ER-α 8 µM with 4-OH-tamoxifen 20 µM; peptide 100 µM
T4 construct: also called estrogen receptor alpha
T4 sequence (looked up): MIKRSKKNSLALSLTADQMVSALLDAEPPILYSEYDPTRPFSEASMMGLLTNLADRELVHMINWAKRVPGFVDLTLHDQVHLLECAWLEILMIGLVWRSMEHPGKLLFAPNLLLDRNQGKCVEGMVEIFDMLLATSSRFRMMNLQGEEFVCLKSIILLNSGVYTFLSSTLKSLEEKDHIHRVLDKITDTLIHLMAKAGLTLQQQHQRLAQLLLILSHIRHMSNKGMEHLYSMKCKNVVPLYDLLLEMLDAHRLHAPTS
Protocol: as §1

ER-β [7] = molecular target: T3, ER-β; test: Thermofluor thermal shift; ER-β 8 µM, no ligand; peptide 100 µM
Protocol: as §1

ER-β [8] = molecular target: T3, ER-β; test: Thermofluor thermal shift; ER-β 8 µM with tamoxifen 20 µM; peptide 100 µM
Protocol: as §1

ER-β [9] = molecular target: T3, ER-β; test: Thermofluor thermal shift; ER-β 8 µM with estrone 20 µM; peptide 100 µM
Protocol: as §1

ER-α [10] = molecular target: T4, ER-α; test: Thermofluor thermal shift; ER-α 8 µM with tamoxifen 20 µM; peptide 100 µM
Protocol: as §1

ER-β [11] = molecular target: T3, ER-β; test: Thermofluor thermal shift; ER-β 8 µM with estradiol 20 µM; peptide 100 µM
Protocol: as §1

ER-α [12] = molecular target: T4, ER-α; test: Thermofluor thermal shift; ER-α 8 µM with estrone 20 µM; peptide 100 µM
Protocol: as §1

ER-α [13] = molecular target: T4, ER-α; test: Thermofluor thermal shift; ER-α 8 µM with 17-α-ethylene-E2 20 µM; peptide 100 µM
Protocol: as §1

ER-β [14] = molecular target: T3, ER-β; test: Thermofluor thermal shift; ER-β 8 µM with 4-OH-tamoxifen 20 µM; peptide 100 µM
Protocol: as §1

ER-α [15] = molecular target: T4, ER-α; test: Thermofluor thermal shift; ER-α 8 µM with estradiol 20 µM; peptide 100 µM
Protocol: as §1

ER-α [16] = molecular target: T4, ER-α; test: Thermofluor thermal shift; ER-α 8 µM, no ligand; peptide 100 µM
Protocol: as §1

ER-β [17] = molecular target: T3, ER-β; test: Thermofluor thermal shift; ER-β 8 µM with 17-α-ethylene-E2 20 µM; peptide 100 µM
Protocol: as §1

ER-α [18] = molecular target: T4, ER-α; test: Thermofluor thermal shift; ER-α 8 µM with ICI-182780 20 µM; peptide 100 µM
Protocol: as §1

ER-β [19] = molecular target: T3, ER-β; test: Thermofluor thermal shift; ER-β 8 µM with 2-methoxy-E2 20 µM; peptide 100 µM
Protocol: as §1

ER-α [20] = molecular target: T4, ER-α; test: Thermofluor thermal shift; ER-α 8 µM with 2-methoxy-E2 20 µM; peptide 100 µM
Protocol: as §1

[21] = ER-β 8 μM, ligand 20 μM, change from the receptor-ligand ΔTm

C[C@]12CC[C@@H]3c4ccc(O)cc4CC[C@H]3[C@@H]1CC[C@@H]2O [Estradiol]
Observed ΔTm Stabilization, SRC3-NR2 (ER-β [1]; [21]): 3.5
Observed ΔTm Stabilization, NR2 (ER-β [1]; ER-β 8 μM, ligand 20 μM): 3.4
Kd (SXR [2]): 8.7 µM
ΔΔTm SRC1-NR2 (SXR [2]): 3.9
Probability Agonist (statistical probability of agonist state) (SXR [2]): 0.76
ΔTm at 100 µM (SXR [2]): 2.3 °C

C[C@]12C[C@H](O)[C@H]3[C@@H](CCC4=CC(=O)CC[C@@]43C)[C@@H]1CC[C@@H]2C(=O)CO [Corticosterone]
Kd (SXR [2]): 1.32 µM
ΔΔTm SRC1-NR2 (SXR [2]): 2.7
ΔTm ligand (SXR [2]): 5 °C
Probability Agonist (statistical probability of agonist state) (SXR [2]): 0.93
ΔTm at 100 µM (SXR [2]): 0.5 °C
fold activation (SXR [3]): 12 fold

C[C@]12CC[C@@H]3c4ccc(O)cc4C[C@@H](CCCCCCCCC[S+]([O-])CCCC(F)(F)C(F)(F)F)[C@H]3[C@@H]1CC[C@@H]2O (some centres unmarked) [ICI-182780]
ΔTm at 100 µM (ER-β [1]; ER-β 8 μM, ligand 20 μM, co-repressor peptide NCoR-1 100 μM, change from the receptor-ligand ΔTm, read-out: Observed ΔTm Stabilization, NCoR1-NR1): 0.3 °C
Observed ΔTm Stabilization, SRC-3 (ER-β [1]; ER-β 8 μM, ligand 20 μM): 16.7
Observed ΔTm Stabilization, NR2 (ER-β [1]; ER-β 8 μM, ligand 20 μM): 0.4
Recruitment of co-activators (additional stabilization in the presence of co-activator protein/peptide) (ER-β [1]; result in words): no ability to recruit co-activators
Observed ΔTm Stabilization, SRC3-NR2 (ER-α [4]; ER-α 8 μM, ligand 20 μM, co-activator peptide SRC3-NR2 100 μM, change from the receptor-ligand ΔTm): 0.2
ΔTm at 100 µM (ER-α [4]; ER-α 8 μM, ligand 20 μM, co-repressor peptide NCoR-1 100 μM, change from the receptor-ligand ΔTm, read-out: Observed ΔTm Stabilization, NCoR1-NR1): -0.6 °C
Observed ΔTm Stabilization, NR2 (ER-α [4]; ER-α 8 μM, ligand 20 μM, change in Tm stabilization from the receptor-ligand ΔTm, head shifted, see doubts): 0.2
Recruitment of co-activators (additional stabilization in the presence of co-activator protein/peptide) (ER-α [4]; result in words): no ability to recruit co-activators

COc1cc2c(cc1O)CC[C@@H]1[C@@H]2CC[C@]2(C)[C@@H](O)CC[C@@H]12 [Ligand 2-methoxy-E2, 2-methoxy-E2]
Observed ΔTm Stabilization, SRC3-NR2 (ER-β [1]; [21]): 4.4
Observed ΔTm Stabilization, NCoR1-NR1 (ER-β [1]; ER-β 8 μM, ligand 20 μM, co-repressor peptide NCoR-1 100 μM, change from the receptor-ligand ΔTm): −0.7
Observed ΔTm Stabilization, SRC-3 (ER-β [1]; ER-β 8 μM, ligand 20 μM): 2.9
Observed ΔTm Stabilization, NR2 (ER-β [1]; ER-β 8 μM, ligand 20 μM): 4.4
Observed ΔTm Stabilization, SRC-3 (ER-α [4]; ER-α 8 μM, ligand 20 μM, average of four experiments, head shifted, see doubts): 3.5

C[C@]12CC[C@@H](O)C[C@@H]1CC[C@@H]1[C@@H]2CC[C@]2(C)C(=O)CC[C@@H]12 [Androsterone]
ΔΔTm SRC1-NR2 (SXR [2]): 3.5
ΔTm ligand (SXR [2]): 3.3 °C
Probability Agonist (statistical probability of agonist state) (SXR [2]): 0.45
ΔTm at 100 µM (SXR [2]): 3.8 °C

C[C@]12CCC(=O)C=C1CC[C@@H]1[C@@H]2[C@@H](O)C[C@@]2(C)[C@H]1CC[C@]2(O)C(=O)CO [Hydrocortisone]
Kd (SXR [2]): 17 µM
ΔΔTm SRC1-NR2 (SXR [2]): 3.3
ΔTm ligand (SXR [2]): 1.6 °C
Probability Agonist (statistical probability of agonist state) (SXR [2]): 0.44
ΔTm at 100 µM (SXR [2]): 3.7 °C

C[C@H](CCC(=O)O)[C@H]1CC[C@H]2[C@@H]3CC[C@@H]4C[C@H](O)CC[C@]4(C)[C@H]3CC[C@]12C [Lithocholic acid]
ΔΔTm SRC1-NR2 (SXR [2]): 2.9
ΔTm ligand (SXR [2]): 2.4 °C
ΔTm at 100 µM (SXR [2]): 1.4 °C

CCOC(=O)C(C)(C)Oc1ccc(Cl)cc1 [Clofibrate]
Kd (SXR [2]): 23 µM
ΔΔTm SRC1-NR2 (SXR [2]): 3.3
ΔTm ligand (SXR [2]): 1.3 °C
Probability Agonist (statistical probability of agonist state) (SXR [2]): 0.49
ΔTm at 100 µM (SXR [2]): 3.4 °C

CC(=O)[C@@]1(O)CC[C@H]2[C@@H]3CCC4=CC(=O)CC[C@]4(C)[C@H]3CC[C@@]21C [17-α-hydroxyprogesterone]
Probability Agonist (statistical probability of agonist state) (SXR [2]): 0.47

CC(=O)[C@H]1CC[C@H]2[C@@H]3CCC4=CC(=O)CC[C@]4(C)[C@H]3[C@H](O)C[C@]12C [11-α-hydroxy-progesterone]
ΔΔTm SRC1-NR2 (SXR [2]): 4.6
ΔΔTm NcoR1-NR2 (SXR [2]): 1.0
ΔTm ligand (SXR [2]): 6.3 °C
Probability Agonist (statistical probability of agonist state) (SXR [2]): 0.96

C[C@]12CCC(=O)C=C1CC[C@@H]1[C@@H]2C(=O)C[C@@]2(C)[C@H]1CC[C@]2(O)C(=O)CO [Cortisone]
ΔΔTm NcoR1-NR2 (SXR [2]): 3.6
Probability Agonist (statistical probability of agonist state) (SXR [2]): 0.37

MHGSLLQEKHRILHKLLQNGNSP (peptide, UniProt Q9Y6Q9 673-695, looked up, Peptide fragment of SRC-3) [co-activator peptide SRC3-NR2]
change in Tm stabilization from the receptor-ligand ΔTm (ER-β [5]): 0.6
change in Tm stabilization from the receptor-ligand ΔTm (ER-α [6]): 0.7
change in Tm stabilization from the receptor-ligand ΔTm (ER-β [7]): 0.9
change in Tm stabilization from the receptor-ligand ΔTm (ER-β [8]): 0.4
change in Tm stabilization from the receptor-ligand ΔTm (ER-β [9]): 3.7
change in Tm stabilization from the receptor-ligand ΔTm (ER-α [10]): 0
change in Tm stabilization from the receptor-ligand ΔTm (ER-β [11]): 3.5
change in Tm stabilization from the receptor-ligand ΔTm (ER-α [12]): 2.3
change in Tm stabilization from the receptor-ligand ΔTm (ER-α [13]): 3.9
change in Tm stabilization from the receptor-ligand ΔTm (ER-β [14]): 0.8
change in Tm stabilization from the receptor-ligand ΔTm (ER-α [15]): 4.3
change in Tm stabilization from the receptor-ligand ΔTm (ER-α [16]): 0.9
change in Tm stabilization from the receptor-ligand ΔTm (ER-β [17]): 2.6
change in Tm stabilization from the receptor-ligand ΔTm (ER-α [18]): 0.2
change in Tm stabilization from the receptor-ligand ΔTm (ER-β [19]): 4.4
change in Tm stabilization from the receptor-ligand ΔTm (ER-α [20]): 4.3
